Residues, ends and D or L forms follow the SMILES beside them.
Columns and labels:
[1] = tested on: Islet cells isolated from mouse pancreas; test: Example 29: viability of isolated pancreatic islet cells; assay type: cell-based; settings: added to isolation buffers
Excerpt: Islet cells will be isolated from mouse pancreas according to standard procedures. Peptide conjugates, aromatic-cationic peptides, SPN10(s) with or without aromatic-cationic peptides or control vehicle will be added to isolation buffers used throughout the isolation procedure. Mitochondrial membrane potential will be measured using TMRM (red) and visualized by confocal microscopy, and apoptosis will be measured by flow cytometry using annexin V and necrosis by propidium iodide.

[2] = tested on: Sprague-Dawley rats; test: Example 40: contrast-induced nephropathy in diabetic animals; assay type: in vivo, rat; settings: iohexol
Experimental: Animal model: Impaired renal function caused by diabetes is one of the major predisposing factors for contrast induced nephropathy (McCullough, et al., J. Am. Coll. Cardio., 2008, 51, 1419-1428). In this experiment, a total of 57 Sprague-Dawley rats will be fed a high-fat diet for 6 weeks, followed by the administration of low-dose streptozotocin (30 mg/kg) for a period of 9 weeks. Blood glucose, serum creatinine and Cystatin C will be measured. Animals meeting the following criteria (n=20) will advance to CIN studies: Scr>250 μM, Cystatin C>750 ng/mL and blood glucose>=[…]. […]
On day 1, serum samples will be collected and total urine protein will be measured using a Bradford assay. […] Samples will be analyzed by students t-test and differences will be considered significant at p<0.05.
Renal function: Renal function will be assessed by determining serum and urinary creatinine at baseline, 48 hours and 72 hours following dye administration. The creatinine clearance will be calculated based on the serum and urinary creatinine and urinary volume. Urinary protein concentration will be determined by Bradford Protein Assay kit (Sigma, St. Louis, MO, U.S.A.), and Cystatin C will be measured using a Westang Rat Cystatin C kit (Shanghai, P.R.C.).

[3] = tested on: Isolated guinea pig hearts; test: Example 15: organ preservation in cardioplegic solution; settings: added to cardioplegic solution; 90 minutes ischemia, 60 minutes reperfusion
Experimental: Isolated guinea pig hearts will be perfused in a retrograde fashion with an oxygenated Krebs-Henseleit solution at 34° C. After 30 minutes of stabilization, the hearts will be perfused with a cardioplegic solution (CPS; St. Thomas) alone or in the presence of peptide conjugates (100 nM); aromatic-cationic peptides (an equivalent molar dose of aromatic-cationic peptide based on the concentration of the aromatic-cationic peptide administered in the peptide conjugate treatment group); SPN10(s) (an equivalent molar dose of SPN10 based on the concentration of SPN10 administered in the peptide conjugate treatment group); or SPN10(s) in combination with aromatic-cationic peptides (e.g., an equivalent molar dose of SPN10 based on the concentration of SPN10 administered in the peptide conjugate treatment group and an equivalent molar dose of aromatic-cationic peptide based on the concentration of aromatic-cationic peptide administered in the peptide conjugate treatment group) for 3 minutes. Global ischemia will then be induced by complete interruption of coronary flow and maintained for 90 minutes. Reperfusion will be performed for 60 minutes with oxygenated Krebs-Henseleit solution. Contractile force, heart rate, and coronary flow will be monitored continuously throughout the procedure.

[4] = tested on: renal ischemia-reperfusion (IR) injury in rats; test: Mitochondrial respiration and ATP synthesis after renal ischemia-reperfusion injury; assay type: in vivo, rat; settings: 45 minutes renal artery occlusion, 20 minutes or 1 hour reperfusion
Experimental: Animals will be subjected to bilateral occlusion of renal artery for 45 minutes followed by 20 minutes or 1 hour of reperfusion. Subjects will receive saline vehicle, a peptide conjugate (2.0 mg/kg s.c.), an aromatic-cationic peptide (an equivalent molar dose of aromatic-cationic peptide based on concentration of the aromatic-cationic peptide administered in the peptide conjugate group) SPN10 (an equivalent molar dose of SPN10 based on concentration of SPN10 administered in the peptide conjugate group), or SPN10(s) in combination with aromatic-cationic peptides (e.g., an equivalent molar dose of SPN10 based on the concentration of SPN10 administered in the peptide conjugate treatment group and an equivalent molar dose of aromatic-cationic peptide based on the concentration of aromatic-cationic peptide administered in the peptide conjugate treatment group) 30 minutes before ischemia and again at the time of reperfusion (n=4-5 in each group). It is anticipated that the peptide conjugate, aromatic-cationic peptide or SPN10(s) (with or without aromatic-cationic peptides) will improve oxygen consumption and ATP synthesis.

SMILES: N=C(N)NCCC[C@H](NC(=O)[C@@H](N)Cc1c[nH]c2ccccc12)C(=O)N[C@@H](Cc1c[nH]c2ccccc12)C(=O)N[C@@H](CCCCN)C(N)=O [SPN10, H-L-Trp-L-Arg-L-Trp-L-Lys-NH2] (H-WRWK-NH2)
- apoptosis of islet cells (annexin V) [1]: reduce apoptosis
- islet cell viability (mitochondrial membrane potential) [1]: increase islet cell viability
- elevated serum Cystatin C and reduced creatinine clearance following contrast dye [2]: attenuate these effects
- contractile function after prolonged ischemia [3]: significantly enhance contractile function
- oxygen consumption and ATP synthesis [4]: improve

Reference: patent publication US20240108740A1, “THERAPEUTIC COMPOSITIONS INCLUDING SPN10 AND USES THEREOF” (Stealth BioTherapeutics Inc., priority 2022, published 2024)
